Counter-ions that a name gives are not always drawn.
Key:
p38alpha = biological target: T1, p38alpha (Homo sapiens, UniProt Q16539); experiment: P38Alpha enzyme inhibition assay (Alphascreen kinase activity assay); assay type: biochemical; conditions: 100 pM p38alpha, 250 μM ATP, 2 hours pre-incubation at 25° C., read-out: p38α inhibition (IC50 values)
T1 construct: purchased Invitrogen PV3304
Procedure, shortened: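 AlphaScreen read-out: after an EDTA stop, an anti-phospho-ATF2 antibody with Protein A acceptor and donor beads measured substrate phosphorylation. Compounds sat 2 h at 25°C with 100 pM p38α and 0.3 µg/ml ATF-2 fusion protein (pH 7.5, 1% DMSO) before 250 µM ATP was added for 1 h. IC50 from dose-response.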

[1] = tested on: LPS-stimulated TNFα release from PBMCs; experiment: LPS-stimulated PBMC TNFα release assay; assay type: cell-based; conditions: inhibition of TNFα release, human PBMCs, LPS 10 ng/ml, 18 h, ELISA, read-out: p38α inhibition (IC50 values)
Procedure, shortened: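 TNFα in supernatants measured by ELISA after 18 h LPS (10 ng/ml) challenge of human PBMCs given 1 h compound pretreatment at 37 °C in medium with 1% FBS. Percent inhibition versus control release fitted to dose-response curves for IC50; at least three independent runs.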

T1 sequence (Q16539 whole entry): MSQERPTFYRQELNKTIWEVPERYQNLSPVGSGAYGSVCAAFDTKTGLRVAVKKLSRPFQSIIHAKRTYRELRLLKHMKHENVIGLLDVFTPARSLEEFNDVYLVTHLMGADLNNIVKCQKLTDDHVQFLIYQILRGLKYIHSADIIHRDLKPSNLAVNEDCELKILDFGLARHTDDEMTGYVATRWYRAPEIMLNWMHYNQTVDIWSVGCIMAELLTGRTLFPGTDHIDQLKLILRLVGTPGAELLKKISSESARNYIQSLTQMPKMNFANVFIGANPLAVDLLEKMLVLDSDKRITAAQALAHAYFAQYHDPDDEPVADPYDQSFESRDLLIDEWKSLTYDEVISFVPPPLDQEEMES

| Structure (SMILES) | IC50 (p38alpha) [nM] | IC50 [1] [nM] |
| --- | --- | --- |
| Cc1ccc(-n2nc(C(C)(C)C)cc2NC(=O)N[C@H]2CC[C@H](Oc3ccc4nnc(N5CCCCC5)n4c3)c3ccccc32)cc1 [Example 55, 1-(5-tert-Butyl-2-p-tolyl-2H-pyrazol-3-yl)-3-[(1S,4S)-4-(3-piperidin-1-yl-[1,2,4]triazolo[4,3-a]pyridin-6-yloxy)-1,2,3,4-tetrahydro-naphthalen-1-yl]-urea] | < 10 | < 10 |
| CC(C)(C)c1cc(NC(=O)N[C@H]2CC[C@@H](Oc3ccc4nnc(N5CCC(O)CC5)n4c3)c3ccccc32)n(-c2ccc(CO)cc2)n1 [Example 57, 1-[5-tert-Butyl-2-(4-hydroxymethyl-phenyl)-2H-pyrazol-3-yl]-3-{(1S,4R)-4-[3-(4-hydroxy-piperidin-1-yl)-[1,2,4]triazolo[4,3-a]pyridin-6-yloxy]-1,2,3,4-tetrahydro-naphthalen-1-yl}-urea] | < 10 | 10 to 100 |
| Cc1ccc(-n2nc(C(C)(C)C)cc2NC(=O)N[C@H]2CC[C@@H](Oc3ccc4nnc([C@@H]5CCCN5C(C)C)n4c3)c3ccccc32)cc1 [Example 58, 1-(5-tert-Butyl-2-p-tolyl-2H-pyrazol-3-yl)-3-{(1S,4R)-4-[3-((S)-1-isopropyl-pyrrolidin-2-yl)-[1,2,4]triazolo[4,3-a]pyridin-6-yloxy]-1,2,3,4-tetrahydro-naphthalen-1-yl}-urea] | < 10 | < 10 |
| Cc1ccc(-n2nc(C(C)(C)C)cc2NC(=O)N[C@H]2CC[C@@H](Oc3ccc4nnc(N(C)C)n4c3)c3ccccc32)cc1 [Example 59, 1-(5-tert-Butyl-2-p-tolyl-2H-pyrazol-3-yl)-3-[(1S,4R)-4-(3-dimethylamino-[1,2,4]triazolo[4,3-a]pyridin-6-yloxy)-1,2,3,4-tetrahydro-naphthalen-1-yl]-urea] | < 10 | < 10 |
| Cc1ccc(-n2nc(C(C)(C)C)cc2NC(=O)N[C@H]2CC[C@@H](Oc3ccc4nnc([C@H]5CCCN5C)n4c3)c3ccccc32)cc1 [Example 60, 1-(5-tert-Butyl-2-p-tolyl-2H-pyrazol-3-yl)-3-{(1S,4R)-4-[3-((R)-1-methyl-pyrrolidin-2-yl)-[1,2,4]triazolo[4,3-a]pyridin-6-yloxy]-1,2,3,4-tetrahydro-naphthalen-1-yl}-urea] | < 10 | < 10 |
| CCN1CCC[C@H]1c1nnc2ccc(O[C@@H]3CC[C@H](NC(=O)Nc4cc(C(C)(C)C)nn4-c4ccc(C)cc4)c4ccccc43)cn12 [Example 61, 1-(5-tert-Butyl-2-p-tolyl-2H-pyrazol-3-yl)-3-{(1S,4R)-4-[3-((S)-1-ethyl-pyrrolidin-2-yl)-[1,2,4]triazolo[4,3-a]pyridin-6-yloxy]-1,2,3,4-tetrahydro-naphthalen-1-yl}-urea] | < 10 | < 10 |
| Cc1ccc(-n2nc(C(C)(C)C)cc2NC(=O)N[C@H]2CC[C@@H](Oc3ccc4nnc([C@@H]5CCCCN5C)n4c3)c3ccccc32)cc1 [Example 62, 1-(5-tert-Butyl-2-p-tolyl-2H-pyrazol-3-yl)-3-{(1S,4R)-4-[3-((S)-1-methyl-piperidin-2-yl)-[1,2,4]triazolo[4,3-a]pyridin-6-yloxy]-1,2,3,4-tetrahydro-naphthalen-1-yl}-urea] | < 10 | < 10 |
| Cc1ccc(-n2nc(C(C)(C)C)cc2NC(=O)N[C@H]2CC[C@@H](Oc3ccc4nnc(N5CCC[C@H](O)C5)n4c3)c3ccccc32)cc1 [Example 63, 1-(5-tert-Butyl-2-p-tolyl-2H-pyrazol-3-yl)-3-{(1S,4R)-4-[3-((S)-3-hydroxy-piperidin-1-yl)-[1,2,4]triazolo[4,3-a]pyridin-6-yloxy]-1,2,3,4-tetrahydro-naphthalen-1-yl}-urea] | < 10 | < 10 |
| Cc1ccc(-n2nc(C(C)(C)C)cc2NC(=O)N[C@H]2CC[C@@H](Oc3ccc4nnc(N5CCC[C@@H](O)C5)n4c3)c3ccccc32)cc1 [Example 64, 1-(5-tert-Butyl-2-p-tolyl-2H-pyrazol-3-yl)-3-{(1S,4R)-4-[3-((R)-3-hydroxy-piperidin-1-yl)-[1,2,4]triazolo[4,3-a]pyridin-6-yloxy]-1,2,3,4-tetrahydro-naphthalen-1-yl}-urea] | < 10 | < 10 |
| CN1CCCC[C@H]1c1nnc2ccc(O[C@@H]3CC[C@H](NC(=O)Nc4cc(C(C)(C)C)nn4-c4ccc(CO)cc4)c4ccccc43)cn12 [Example 65, 1-[5-tert-Butyl-2-(4-hydroxymethyl-phenyl)-2H-pyrazol-3-yl]-3-{(1S,4R)-4-[3-((S)-1-methyl-piperidin-2-yl)-[1,2,4]triazolo[4,3-a]pyridin-6-yloxy]-1,2,3,4-tetrahydro-naphthalen-1-yl}-urea, partial formate salt] | < 10 | < 10 |
| Cc1ccc(-n2nc(C(C)(C)C)cc2NC(=O)N[C@H]2CC[C@@H](Oc3ccc4nnc(N5CCC(CCO)CC5)n4c3)c3ccccc32)cc1 [Example 66, 1-(5-tert-Butyl-2-p-tolyl-2H-pyrazol-3-yl)-3-{(1S,4R)-4-[3-(4-hydroxyethyl-piperidin-1-yl)-[1,2,4]triazolo[4,3-a]pyridin-6-yloxy]-1,2,3,4-tetrahydro-naphthalen-1-yl}-urea] | < 10 | < 10 |
| Cc1ccc(-n2nc(C(C)(C)C)cc2NC(=O)N[C@H]2CC[C@@H](Oc3ccc4nnc(N5CCCCCC5)n4c3)c3ccccc32)cc1 [Example 67, 1-[(1S,4R)-4-(3-Azepan-1-yl-[1,2,4]triazolo[4,3-a]pyridin-6-yloxy)-1,2,3,4-tetrahydro-naphthalen-1-yl]-3-(5-tert-butyl-2-p-tolyl-2H-pyrazol-3-yl)-urea] | < 10 | < 10 |
| Cc1ccc(-n2nc(C(C)(C)C)cc2NC(=O)N[C@H]2CC[C@@H](Oc3ccc4nnc(N5CCN(C)CC5)n4c3)c3ccccc32)cc1 [Example 68, 1-(5-tert-Butyl-2-p-tolyl-2H-pyrazol-3-yl)-3-{(1S,4R)-4-[3-(4-methyl-piperazin-1-yl)-[1,2,4]triazolo[4,3-a]pyridin-6-yloxy]-1,2,3,4-tetrahydro-naphthalen-1-yl}-urea] | < 10 | < 10 |
| Cc1ccc(-n2nc(C(C)(C)C)cc2NC(=O)N[C@H]2CC[C@@H](Oc3ccc4nnc(N5CCCN(C)CC5)n4c3)c3ccccc32)cc1 [Example 69, 1-(5-tert-Butyl-2-p-tolyl-2H-pyrazol-3-yl)-3-{(1S,4R)-4-[3-(4-methyl-[1,4]diazepan-1-yl)-[1,2,4]triazolo[4,3-a]pyridin-6-yloxy]-1,2,3,4-tetrahydro-naphthalen-1-yl}urea] | < 10 | < 10 |
| CC(C)(C)c1cc(NC(=O)N[C@H]2CC[C@@H](Oc3ccc4nnc(N5CCCCC5)n4c3)c3ccccc32)n(-c2ccc(O)cc2)n1 [Example 70, 1-[5-tert-Butyl-2-(4-hydroxy-phenyl)-2H-pyrazol-3-yl]-3-[(1S,4R)-4-(3-piperidin-1-yl-[1,2,4]triazolo[4,3-a]pyridin-6-yloxy)-1,2,3,4-tetrahydro-naphthalen-1-yl]-urea] | < 10 | < 10 |
| CC(C)(C)c1cc(NC(=O)N[C@H]2CC[C@@H](Oc3ccc4nnc(N5CCCCC5)n4c3)c3ccccc32)n(-c2ccc(C#N)cc2)n1 [Example 71, 1-[5-tert-Butyl-2-(4-cyano-phenyl)-2H-pyrazol-3-yl]-3-[(1S,4R)-4-(3-piperidin-1-yl-[1,2,4]triazolo[4,3-a]pyridin-6-yloxy)-1,2,3,4-tetrahydro-naphthalen-1-yl]-urea] | < 10 | < 10 |

— US9315503B2, “Kinase inhibitors” (CHIESI FARMACEUTICI S.p.A., priority 2011, dated 2016)
